Results from PMC5951806, “Rapid labelling and covalent inhibition of intracellular native proteins using ligand-directed N-acyl-N-alkyl sulfonamide” (Nature Communications, 2018).

Key:
Assay in all cases: TMT LC-MSMS of 11-labelled proteins
Format in all cases: cell-based
[1] = target: T1, Carnitine O-palmitoyltransferase 1, liver isoform (CPT1A) (Homo sapiens, UniProt P50416)
T1 sequence (P50416 1-773): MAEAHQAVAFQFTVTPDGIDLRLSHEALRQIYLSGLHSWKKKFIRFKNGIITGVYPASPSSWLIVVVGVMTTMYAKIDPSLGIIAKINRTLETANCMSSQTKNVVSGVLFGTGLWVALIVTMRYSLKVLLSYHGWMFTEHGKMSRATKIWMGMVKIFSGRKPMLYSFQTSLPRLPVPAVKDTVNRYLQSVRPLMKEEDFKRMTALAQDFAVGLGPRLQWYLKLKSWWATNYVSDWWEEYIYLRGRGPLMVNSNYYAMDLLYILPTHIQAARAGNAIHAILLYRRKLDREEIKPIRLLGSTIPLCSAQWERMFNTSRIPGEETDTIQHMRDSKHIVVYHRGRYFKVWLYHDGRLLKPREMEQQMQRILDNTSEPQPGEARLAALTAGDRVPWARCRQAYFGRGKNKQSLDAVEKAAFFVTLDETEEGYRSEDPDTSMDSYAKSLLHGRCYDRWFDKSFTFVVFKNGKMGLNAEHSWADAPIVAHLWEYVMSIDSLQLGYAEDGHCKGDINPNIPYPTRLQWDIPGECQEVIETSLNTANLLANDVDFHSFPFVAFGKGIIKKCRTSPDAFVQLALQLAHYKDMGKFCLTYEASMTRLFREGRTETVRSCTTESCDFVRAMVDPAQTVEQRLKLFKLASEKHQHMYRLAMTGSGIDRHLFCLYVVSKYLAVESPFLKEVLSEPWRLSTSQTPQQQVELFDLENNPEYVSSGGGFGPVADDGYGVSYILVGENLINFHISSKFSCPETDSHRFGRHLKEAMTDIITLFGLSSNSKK

[2] = target: Multidrug resistance-associated protein 5 (ABCC5) (Homo sapiens, UniProt O15440)
Multidrug resistance-associated protein 5 (ABCC5), sequence (O15440 whole entry): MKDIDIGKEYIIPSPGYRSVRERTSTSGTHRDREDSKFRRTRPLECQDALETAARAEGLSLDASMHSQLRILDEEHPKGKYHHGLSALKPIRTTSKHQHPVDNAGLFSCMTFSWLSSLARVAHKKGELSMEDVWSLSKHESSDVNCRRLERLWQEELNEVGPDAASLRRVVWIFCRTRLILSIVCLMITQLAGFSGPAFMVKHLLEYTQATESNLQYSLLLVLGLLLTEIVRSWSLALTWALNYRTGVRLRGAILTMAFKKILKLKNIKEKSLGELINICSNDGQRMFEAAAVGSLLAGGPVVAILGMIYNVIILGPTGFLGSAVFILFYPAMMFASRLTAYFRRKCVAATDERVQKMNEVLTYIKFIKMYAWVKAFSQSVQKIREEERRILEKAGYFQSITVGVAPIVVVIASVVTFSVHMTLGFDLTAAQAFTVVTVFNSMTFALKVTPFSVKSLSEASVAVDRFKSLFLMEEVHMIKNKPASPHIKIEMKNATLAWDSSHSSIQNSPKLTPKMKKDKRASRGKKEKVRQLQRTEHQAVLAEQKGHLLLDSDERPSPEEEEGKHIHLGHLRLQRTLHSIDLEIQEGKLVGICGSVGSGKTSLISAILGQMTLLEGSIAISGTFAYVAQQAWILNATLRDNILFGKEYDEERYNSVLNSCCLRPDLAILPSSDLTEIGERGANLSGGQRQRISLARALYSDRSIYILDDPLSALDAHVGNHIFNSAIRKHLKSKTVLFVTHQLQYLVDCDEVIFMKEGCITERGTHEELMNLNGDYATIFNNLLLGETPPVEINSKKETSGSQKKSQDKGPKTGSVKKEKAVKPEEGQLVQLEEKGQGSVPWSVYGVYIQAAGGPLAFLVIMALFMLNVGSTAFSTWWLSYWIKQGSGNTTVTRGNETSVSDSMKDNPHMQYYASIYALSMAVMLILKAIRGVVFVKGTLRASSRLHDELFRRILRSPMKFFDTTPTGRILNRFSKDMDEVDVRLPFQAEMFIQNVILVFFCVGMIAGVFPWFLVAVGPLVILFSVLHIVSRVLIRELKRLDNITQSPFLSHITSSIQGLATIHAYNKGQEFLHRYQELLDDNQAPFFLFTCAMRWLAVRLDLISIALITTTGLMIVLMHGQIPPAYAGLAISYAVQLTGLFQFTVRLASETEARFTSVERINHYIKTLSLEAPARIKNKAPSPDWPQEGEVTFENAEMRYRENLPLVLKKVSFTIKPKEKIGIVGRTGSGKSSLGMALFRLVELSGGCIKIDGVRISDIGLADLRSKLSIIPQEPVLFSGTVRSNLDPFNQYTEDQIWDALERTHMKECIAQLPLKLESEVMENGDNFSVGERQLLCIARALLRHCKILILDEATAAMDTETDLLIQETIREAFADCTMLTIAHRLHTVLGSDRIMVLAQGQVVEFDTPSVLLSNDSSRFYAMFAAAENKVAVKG

[3] = target: Sodium/potassium-transporting ATPase subunit alpha-1 (ATP1A1) (Homo sapiens, UniProt P05023)
[4] = sheet Exp1, SKBR3 cells, 11 0.5 µM 3 h vs DMSO
[5] = sheet Exp1, SKBR3 cells, 11 0.5 µM 3 h vs with PU-H71 10 µM
[6] = sheet Merged, SKBR3 cells, 11 0.5 µM 3 h vs DMSO
[7] = sheet Merged, SKBR3 cells, 11 0.5 µM 3 h vs with PU-H71 10 µM

Abundance Ratio: (11) / (11 with PU-H71) ([1]; Exp3, CPT1A): 0.719
Abundance Ratio: (11) / (DMSO) ([1]; Exp3, CPT1A): 1.338
Abundances (Grouped): 11 ([1]; Exp3, CPT1A): 20.2
Abundances (Grouped): 11 with PU-H71 ([1]; Exp3, CPT1A, with PU-H71): 28.1
Abundance Ratio: (11) / (DMSO) [1, 4]: 2.506
Abundance Ratio: (11) / (11 with PU-H71) [1, 5]: 0.783
Abundance Ratio: (11) / (DMSO) [1, 6]: 1.461
Abundance Ratio: (11) / (11 with PU-H71) [1, 7]: 0.79
Abundance Ratio: (11) / (11 with PU-H71) ([2]; Exp3, ABCC5): 0.868
Abundance Ratio: (11) / (DMSO) ([2]; Exp3, ABCC5): 4.007
Abundances (Grouped): 11 ([2]; Exp3, ABCC5): 227.2
Abundances (Grouped): 11 with PU-H71 ([2]; Exp3, ABCC5): 261.9
Abundance Ratio: (11) / (DMSO) [2, 4]: 1.935
Abundance Ratio: (11) / (11 with PU-H71) [2, 5]: 1.002
Abundance Ratio: (11) / (11 with PU-H71) ([2]; sheet Exp2, ABCC5): 0.947
Abundance Ratio: (11) / (DMSO) ([2]; sheet Exp2, ABCC5): 2.92
Abundances (Grouped): 11 ([2]; sheet Exp2, ABCC5): 189.2
Abundances (Grouped): 11 with PU-H71 ([2]; sheet Exp2, ABCC5): 199.7
Abundance Ratio: (11) / (DMSO) [2, 6]: 3.871
Abundance Ratio: (11) / (11 with PU-H71) [2, 7]: 0.868
Abundance Ratio: (11) / (11 with PU-H71) ([3]; Exp3, ATP1A1): 0.969
Abundance Ratio: (11) / (DMSO) ([3]; Exp3, ATP1A1): 3.731
Abundances (Grouped): 11 ([3]; Exp3, ATP1A1): 59.7
Abundances (Grouped): 11 with PU-H71 ([3]; Exp3, ATP1A1): 61.6
Abundance Ratio: (11) / (DMSO) [3, 4]: 1.112
Abundance Ratio: (11) / (11 with PU-H71) [3, 5]: 0.455
Abundance Ratio: (11) / (11 with PU-H71) ([3]; sheet Exp2, ATP1A1): 0.735
Abundance Ratio: (11) / (DMSO) ([3]; sheet Exp2, ATP1A1): 2.007
Abundances (Grouped): 11 ([3]; sheet Exp2, ATP1A1): 162
Abundances (Grouped): 11 with PU-H71 ([3]; sheet Exp2, ATP1A1): 220.4
Abundance Ratio: (11) / (DMSO) [3, 6]: 1.112
Abundance Ratio: (11) / (11 with PU-H71) [3, 7]: 0.455
SMILES: CC(=O)Oc1ccc2c(c1)Oc1cc(OC(C)=O)ccc1C21OC(=O)c2cc(C(=O)NCCOCCOCCNC(=O)CCCC(=O)N(CC#N)S(=O)(=O)c3ccc(C(=O)NCCCn4c(Sc5cc6c(cc5I)OCO6)nc5c(N)ncnc54)cc3)ccc21 [compound 11]
